One block for each molecule: values may come before it. Peptide text beside a SMILES is read from it. * marks the point of attachment. 5FAM = O=C1OC2(c3ccc(O)cc3Oc3cc(O)ccc32)c2ccc(C(=O)*)cc21
Legend:
[1] = system: RBL cell; assay: Intracellular side reactions (degradation/modification) of the Fl-sPKC reporter in a microinjected RBL cell; assay type: cell-based, rat; details: 200 μM Pefabloc present, with or without PMA, FIGS. 2B and 2C
Protocol: In the measurements illustrated by FIG. 2A-C, prior to mounting on the microscope stage for microinjection and analysis at room temperature (20°-23° C.), each cell chamber 199 was treated by addition of 10 μl of 10 mM Pefabloc (Boehringer-Mannheim, Indianapolis, Ind.) in buffer A with gentle manually pipetted mixing using a Pipetman® (Rainin, Woburn, Mass.).
This yielded a final Pefabloc concentration of 200 μM. Pefabloc is a soluble, physiologically tolerated, inhibitor of serine proteases, a subset of intracellular enzymes that tend to degrade peptides. Pefabloc was included to minimize intracellular degradation of Fl-sPKC. […]
In the measurements illustrated by FIGS. 2A-C, Fl-sPKC was diluted in buffer B, a physiologically compatible intracellular buffer composed of 10 mM Hepes and 140 mM KCl, at pH 7.4. […] The cells 46 that had been successfully microinjected were identified by visual observation of internal Calcium Orange epi-fluorescence through a set of TRITC filters (Chroma Technology Corp., Brattleboro, Vt.) (not shown, but included in the microscope 12) to minimize photodestruction of the fluorescein moiety on Fl-sPKC. […]
Clearly activation of an intracellular kinase by a potent pharmacologic activator can be measured by this approach. Furthermore, both electrophoretograms in FIGS. 2B and 2C show the presence of peaks that cannot be readily identified. […]

[2] = system: protein kinase C (PKC); assay: Net intracellular PKC activity in single RBL cells: microinjected Fl-sPKC reporter, laser lysis, capillary electrophoresis, laser-induced fluorescence; assay type: cell-based, rat; details: RBL cell
Protocol: FIGS. 2A-C and 3A-C are two sets of graphs of three stacked electrophoretograms of reporter substrate molecule separations all made under identical electrophoretic conditions on the same day. In the first embodiment, illustrated by FIGS. 2A-C and FIGS. 3A-C, rat basophilic leukemia (RBL) cells, from the tumor mast cell line RBL-2H3, were used. These cells were grown at 37° C. and 5% CO2 in Dulbecco's modified eagle medium (DMEM) supplemented with 10% fetal bovine serum, and L-glutamine ([…]). Penicillin (100 units/ml) and streptomycin (100 μg/ml) were added to the media to inhibit bacterial growth. […] The cells 46 were plated at concentrations determined empirically to produce approximately one cell per 100× field of view on the day of the measurement. […]
In the first embodiment, the microscopy system of FIG. 9 used for cell lysis was similar to that described previously in the incorporated application entitled “Fast Controllable Laser Lysis of Cells for Analysis”. The frequency-doubled Q-switched Nd:YAG laser 18 (Minilite II, Continuum, Santa Clara, Calif.; Minilase II-20, New Wave Research, Sunnyvale, Calif.) was used to generate a single pulse (1-25 μJ, 5-ns pulse width, 532 nm) directed into a fluorescence microscope 12 (Axiovert 135, Zeiss, Thornwood, N.Y.). […]

[3] = system: protein kinase C (PKC); assay: Time course of intracellular Fl-sPKC phosphorylation by PKC in single NIH/3T3 cells (laser lysis, capillary electrophoresis); assay type: cell-based, murine; details: 100 nM PMA, 5 minute time point, room temperature, FIG. 12
[4] = system: protein kinase C (PKC); assay: Intracellular Fl-sPKC phosphorylation by PKC in single Xenopus laevis oocytes (PERT CE sampling, MEKC); assay type: cell-based
Protocol: Oocytes 46′ were surgically obtained from pigmented or albino Xenopus laevis frogs and were cultured as described previously. Oocytes 46′ were microinjected by means of an injector mounted on a low power dissecting microscope (not shown) with 50 nl of reporter substrate peptide (0.5-200 μM) in buffer B, and then incubated for 30 min to permit diffusion of the peptide through the oocyte 46′. For measurements, oocytes 46′ were placed in buffer C (96 mM NaCl, 2 mM KCl, 1.8 mM CaCl2, 1 mM MgCl2, 5 mM Hepes, pH 7.6). When LPA (1-oleoyl-2-hydroxy-sn-glycero-3-phosphate, Avanti Polar Lipids, Alabaster, Ala.) was added to the oocytes 46′, fatty acid-free bovine serum albumen (5%) was used as a carrier as described previously.
All samples from the oocytes 46′ were obtained and electrophoresed by a method referred to as piezoelectric sampling/rapid translation/capillary electrophoresis (PERT CE). The apparatus used for PERT CE is illustrated in FIGS. 8A-B. FIGS. 8A and 8B are diagrammatic depictions of the components of the apparatus used to make measurements of intracellular enzyme activity from single Xenopus laevis oocytes 46′. […] The holder is part of a complete apparatus for automatically sampling oocyte cytoplasm and rapidly subjecting this sample to electrophoresis before any substantial change in the substrate molecules can occur. This is achieved by providing a sharpened electrophoresis capillary 22 attached to a high speed translation system to plunge the capillary into the cell to capture a plug of cytoplasm. Then the capillary is automatically withdrawn from the oocyte and rapidly moved to make electrical contact with a reservoir 134 of electrophoresis buffer so that electrophoresis of the substrate molecules within the “plug” commences before any additional chemical reactions occur.
To obtain cytoplasm, the capillary 22 was driven 60 μm into the oocyte 46′ by the piezoelectric element. […] The capillary 22 was then automatically withdrawn from the cytoplasm. […] Electrophoresis was initiated immediately. […]

side products as share of collected fluorescence [1]: about 50%
Structure (SMILES): CC(C)C[C@H](NC(=O)[C@H](CO)NC(=O)CNC(=O)[C@H](CCCCN)NC(=O)[C@H](CCCNC(=N)N)NC(=O)[C@H](C)NC(=O)[C@H](Cc1ccccc1)NC(=O)[C@H](CCCNC(=N)N)NC(=O)c1ccc2c(c1)C(=O)OC21c2ccc(O)cc2Oc2cc(O)ccc21)C(=O)N[C@@H](CCCNC(=N)N)C(=O)N[C@@H](CCC(N)=O)C(=O)N[C@@H](CCCCN)C(=O)N[C@@H](CC(N)=O)C(=O)N[C@H](C(=O)O)C(C)C [Fl-sPKC, Fl- Arg-Phe-Ala-Arg-Lys-Gly-Ser-Leu-Arg-Gln-Lys-Asn-Val] (5FAM-RFARKGSLRQKNV-OH)

Structure (SMILES): CCCCCCCCCCCCCC(=O)O[C@@H]1[C@@H](C)[C@@]2(O)[C@@H](C=C(CO)C[C@]3(O)C(=O)C(C)=C[C@@H]23)[C@@H]2C(C)(C)[C@]12OC(C)=O [PMA, phorbol myristic acid]
Fl-sPKC peak versus P-Fl-sPKC peak (net PKC activity) ([2]; 100 nM PMA, 5 minutes, FIG. 2C): nearly equal magnitude | PKC activation (peaks matching P-Fl-sPKC) ([2]; 1 μM PMA for 10 minutes before microinjection of Fl-sPKC and Fl-sPKA, FIG. 11C): small, but measurable amount of PKC activation | phosphorylation level of Fl-sPKC [3]: ~50% | collected fluorescence corresponding to P-Fl-sPKC ([4]; Xenopus oocyte, 10 μM PMA for 10 minutes, ~10 μM reporter substrate, FIG. 4D): essentially all collected fluorescence | degree of reporter substrate phosphorylation ([4]; Xenopus oocyte, 10 μM PMA for three minutes, FIG. 5): intermediate degree of reporter substrate phosphorylation | average rate of Fl-sPKC phosphorylation within oocytes ([4]; Xenopus oocytes, 10 μM activator, intermediate time points, FIGS. 6A/6B): 25 ± 15 nM/s
